Data on 15 molecules can be found in patent US9969694B2, “N-(arylalkyl)-N′-pyrazolyl-urea, thiourea, guanidine and cyanoguanidine compounds as TrkA kinase inhibitors” (Array BioPharma Inc., priority 2012, dated 2018).

The target of the assay is T1, His-tagged recombinant human TrkA (Homo sapiens, UniProt P04629).
T1 construct: 6HIS tagged cytoplasmic domain from Invitrogen, Catalog No. PV3144; purchased Invitrogen PV3144
Put plainly: TrkA Kinase Binding Assay (LanthaScreen Eu). Conditions: averaged IC50; TR-FRET binding, 60 min, 22° C.; read-out: TrkA Enzyme IC50. In a few lines:
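TR-FRET tracer displacement: 5 nM His-tagged TrkA cytoplasmic domain with 4 nM Tracer 236, biotinylated anti-His and Eu-streptavidin in pH 7.5 MOPS buffer, 2% DMSO, 60 min at 22 °C. 665/615 nm emission ratio gave percent of control; IC50 from four-parameter fit.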
Background: In TR-FRET formats the signal depends on donor and acceptor labels being close together.

T1 sequence (P04629 440-796 limits assumed): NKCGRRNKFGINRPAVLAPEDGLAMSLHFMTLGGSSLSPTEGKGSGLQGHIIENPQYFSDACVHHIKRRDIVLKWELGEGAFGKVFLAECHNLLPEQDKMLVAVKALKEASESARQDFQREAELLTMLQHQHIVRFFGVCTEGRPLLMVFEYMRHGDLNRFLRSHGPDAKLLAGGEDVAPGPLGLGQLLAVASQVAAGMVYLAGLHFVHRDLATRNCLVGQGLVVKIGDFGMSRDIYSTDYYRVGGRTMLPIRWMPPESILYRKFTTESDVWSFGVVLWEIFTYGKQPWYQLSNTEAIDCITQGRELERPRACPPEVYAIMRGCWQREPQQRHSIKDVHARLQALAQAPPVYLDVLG

The IC50 is the midpoint of a concentration-inhibition curve. As to `COCc1ccc(CN)c(CNC(=O)Nc2c(C)c(-c3cnn(C)c3)nn2-c2ccccc2)c1` [Example 118, 1-(2-(aminomethyl)-5-(methoxymethyl)benzyl)-3-(1′,4-dimethyl-1-phenyl-1H,1′H-[3,4′-bipyrazol]-5-yl)urea], the 50% inhibitory concentration (IC50) lay in the range of 100 to 1000 nM.

For the molecule `COCc1ccc(CNCC(F)(F)F)c(CNC(=O)Nc2c(C)c(-c3cnn(C)c3)nn2-c2ccccc2)c1` [Example 119, 1-(1′,4-dimethyl-1-phenyl-1H,1′H-[3,4′-bipyrazol]-5-yl)-3-(5-(methoxymethyl)-2-(((2,2,2-trifluoroethyl)amino)methyl)benzyl)urea], the IC50 is 100 to 1000 nM. In the case of `COCc1ccc(C2CCC2)c(CNC(=O)Nc2c3c(nn2-c2ccccc2)CSC3)c1` [Example 120, 1-(2-cyclobutyl-5-(methoxymethyl)benzyl)-3-(2-phenyl-4,6-dihydro-2H-thieno[3,4-c]pyrazol-3-yl)urea], the IC50 was under 100 nM. On to `COCc1ccc(C2CCC2)c(CNC(=O)Nc2c3c(nn2-c2ccccc2)CS(=O)(=O)C3)c1` [Example 121, 1-(2-cyclobutyl-5-(methoxymethyl)benzyl)-3-(5,5-dioxido-2-phenyl-4,6-dihydro-2H-thieno[3,4-c]pyrazol-3-yl)urea], for which the 50% inhibitory concentration (IC50) was under 100 nM. As to `COCc1ccc(C2CCC2)c(CNC(=O)Nc2c(C)c(=O)[nH]n2-c2ccccc2)c1` [Example 122, 1-(2-cyclobutyl-5-(methoxymethyl)benzyl)-3-(4-methyl-5-oxo-2-phenyl-2,5-dihydro-1H-pyrazol-3-yl)urea], the IC50 was under 100 nM. Take `CSCc1ccc(C2CCC2)c(CNC(=O)Nc2c(C)c(-c3cnn(C)c3)nn2-c2ccccc2)c1` [Example 123, 1-(2-cyclobutyl-5-((methylthio)methyl)benzyl)-3-(1′,4-dimethyl-1-phenyl-1H,1′H-[3,4′-bipyrazol]-5-yl)urea]: the IC50 was under 100 nM.

For the molecule `COCc1ccc(C2CCC2)c(CNC(=O)Nc2c(C)c(OC[C@H]3COC(C)(C)O3)nn2-c2ccccc2)c1` [Example 124, (S)-1-(2-cyclobutyl-5-(methoxymethyl)benzyl)-3-(3-((2,2-dimethyl-1,3-dioxolan-4-yl)methoxy)-4-methyl-1-phenyl-1H-pyrazol-5-yl)urea], the half-inhibitory concentration (IC50) is under 100 nM. As for `COCc1ccc(C2CCC2)c(CNC(=O)Nc2c(C)c(OC[C@H](O)CO)nn2-c2ccccc2)c1` [Example 125, (R)-1-(2-cyclobutyl-5-(methoxymethyl)benzyl)-3-(3-(2,3-dihydroxypropoxy)-4-methyl-1-phenyl-1H-pyrazol-5-yl)urea], the half-maximal inhibitory concentration (IC50) was under 100 nM. The figure for `COCc1ccc(C2CCC2)c(CNC(=O)Nc2c(C)c(OCc3nnc(C)o3)nn2-c2ccccc2)c1` [Example 126, 1-(2-cyclobutyl-5-(methoxymethyl)benzyl)-3-(4-methyl-3-((5-methyl-1,3,4-oxadiazol-2-yl)methoxy)-1-phenyl-1H-pyrazol-5-yl)urea] is under 100 nM; for `CSc1ccc(C2CCC2)c(CNC(=O)Nc2c(C)c(-c3cnn(C)c3)nn2-c2ccccc2)c1` [Example 127, 1-(2-cyclobutyl-5-(methylthio)benzyl)-3-(1′,4-dimethyl-1-phenyl-1H,1H-[3,4′-bipyrazol]-5-yl)urea] it is 100 to 1000 nM. The figure for `CCSc1ccc(C2CCC2)c(CNC(=O)Nc2c(C)c(-c3cnn(C)c3)nn2-c2ccccc2)c1` [Example 128, 1-(2-cyclobutyl-5-(ethylthio)benzyl)-3-(1′,4-dimethyl-1-phenyl-1H,1′H-[3,4′-bipyrazol]-5-yl)urea] is 100 to 1000 nM; for `COCc1cccc(C(Cc2ccccc2)NC(=O)Nc2c(C)c(-c3cnn(C)c3)nn2-c2ccccc2)c1` (stereo not drawn) [Example 129, 1-(1′,4-dimethyl-1-phenyl-1H,1′H-[3,4′-bipyrazol]-5-yl)-3-(1-(3-(methoxymethyl)phenyl)-2-phenylethyl)urea] it is under 100 nM. As to `COCc1ccc(OC(F)(F)F)c(CNC(=O)Nc2c(C)c(OC3CN4CCC3CC4)nn2-c2ccccc2)c1` (stereo not drawn) [Example 130, 1-(5-(methoxymethyl)-2-(trifluoromethoxy)benzyl)-3-(4-methyl-1-phenyl-3-(quinuclidin-3-yloxy)-1H-pyrazol-5-yl)urea], the half-inhibitory concentration (IC50) is under 100 nM. On to `COCc1ccc(OC(F)(F)F)c(CNC(=O)Nc2c(C)c(OC[C@@H]3CCC(=O)N3)nn2-c2ccccc2)c1` [Example 131, (S)-1-(5-(methoxymethyl)-2-(trifluoromethoxy)benzyl)-3-(4-methyl-3-((5-oxopyrrolidin-2-yl)methoxy)-1-phenyl-1H-pyrazol-5-yl)urea], for which the IC50 is under 100 nM. The figure for `COCc1cccc(C(NC(=O)Nc2c(C)c(-c3cnn(C)c3)nn2-c2ccccc2)C(F)(F)F)c1` (stereo not drawn) [Example 132] is over 1000 nM.
